Measurements as given in US20230271958A1, “SALT AND CRYSTAL FORM OF DIHYDROPYRIDO[2,3-d]PYRIMIDINE DERIVATE” (NANJING CHIA TAI TIANQING PHARMACEUTICAL CO., LTD., priority 2020, published 2023).

Test: Solid stability of crystal form A (chemical purity by HPLC)
Type: physicochemical
Conditions: for Purity (%) after placement (day 20): exposed to air for 20 d; for Purity (%) before placement (day 0): exposed to air
Experimental: Hot and humid conditions: temperature: 40° C., relative humidity: 75%, crystal form A was exposed to air for 20 d • b. High temperature conditions: temperature: 60° C., crystal form A was exposed to air for 20 d
The chemical purity of crystal form A was measured by HPLC.
Chromatographic column: ACE Excel 5 Super C18 (4.6×150 mm, 5 μm)
Detection wavelength: 230 nm, column temperature: 30° C., flow rate: 1.0 mL/min
Mobile phase: diammonium hydrogen phosphate (1.32 g) was weighed and dissolved in water (1000 mL), the solution was adjusted with phosphoric acid until the pH of the solution was 7.2, filtered, and used as A phase; and acetonitrile was used as B phase.

[1] = condition a: 40° C., relative humidity 75%

SMILES: CC(C)NC[C@@H](C(=O)N1CCN(c2ncnc3c2[C@H](C)CC(=O)N3)[C@H]2C[C@H]21)c1ccc(Cl)cc1.O=C(O)/C=C/C(=O)O [crystal form A]
- Purity (%) after placement (day 20) [1]: 99.89%
- Purity (%) before placement (day 0) [1]: 99.84%
- Purity (%) after placement (day 20) (condition b: 60° C.): 99.88%
- Purity (%) before placement (day 0) (condition b: 60° C.): 99.84%
